Values after ≈ are worked out from the molar mass of the structure shown. Values joined by “and” are separate entries in the source; they are usually repeats but may differ in a detail not shown here. Equal values may be shown once. Read-outs that look alike come from different tables or passages of the source. Marks after values point to notes of the source that are not given here.
Tests used:
[1] = Turbidity-based aqueous solubility; assay type: physicochemical; settings: aqueous solution (composition not given), kinetic from dmso stock, read-out: highest soluble concentration
Source text: (§1) Table 20 provides results of in vitro and in vivo pharmacokinetics performed for each of the represented compounds.

[2] = Protein binding via Rapid Equilibrium Dialysis - plasma; assay type: in vitro ADME; settings: Rat (SD) plasma, 2 μM
Source text: as §1

[3] = Microsomal stability assay (half-life), human; assay type: in vitro ADME; settings: Human microsomes, read-out: Microsomal stability T1/2
Source text: as §1

[4] = Microsomal stability assay (half-life), mouse; assay type: in vitro ADME; settings: Mouse (CD1) microsomes, read-out: Microsomal stability T1/2
Source text: as §1

[5] = Microsomal stability assay (half-life), rat; assay type: in vitro ADME; settings: Rat (SD) microsomes, read-out: Microsomal stability T1/2
Source text: as §1

[6] = In vivo PK, oral gavage, plasma; design: species or system Rat (SD)
Source text: as §1
(§2) Tables 4 and 5 depict the summary of rat plasma sample concentrations after administration of ADG I-204. FIG. 6 provides a summary of rat plasma and brain concentrations.

[7] = In vivo PK, IV dose, plasma; design: species or system Rat (SD); settings: for Plasma concentration, mean / Plasma concentration, individual animal: IV 1 mg/kg
Source text: as §1, §2

[8] = In vivo PK, IV dose, Terminal - brain (brain availability); design: species or system Rat (SD); settings: for Brain concentration, mean / Brain concentration, individual animal: IV 1 mg/kg
Procedure: Table 3 and FIG. 5 depict the brain availability of ADG I-204, ADG I-205, ADG I-206, and ADG I-207 after IV administration of 1 mg/kg dose.

[9] = tested on: H3K9ac; test: Western blot, differentiated CAD cell lysates, H3K9ac levels; assay type: cell-based; settings: differentiated CAD cells, DMSO = 100.00%
Source text: as §1

[10] = In vivo PK, oral gavage, plasma; design: species or system Rat (SD); settings: Rat, PO 5 mg/kg, BQL limit 1.00 ng/mL, listed as ADG I-206, 5 mg/kg

solubility [1]: 5 µM (≈ 1.83 µg/mL)
Protein binding, plasma: % Protein free [2]: 0.6565 % Protein free
half-life at 2 μM [3]: 43.3 min
half-life at 2 μM [4]: 4.39 min
half-life at 2 μM [5]: 6.36 min
Plasma concentration, mean ([6]; Rat (SD), PO 5 mg/kg, 24 hr, BQL = below quantitation limit (1.00 ng/mL)): BQL
Plasma concentration, individual animal ([6]; Rat, PO 5 mg/kg, 24.0 hr, BQL limit 1.00 ng/mL): BQL
concentration at 0.25 h ([6]; SD, rat, plasma, po, 5 mg/kg, Rat (SD), 0.25 hr, BQL = below quantitation limit (1.00 ng/mL), read-out: Plasma concentration, mean): 1.47 ng/mL
concentration at 0.5 h ([6]; SD, rat, plasma, po, 5 mg/kg, Rat (SD), 0.5 hr, BQL = below quantitation limit (1.00 ng/mL), read-out: Plasma concentration, mean): 2.32 ng/mL
concentration at 1 h ([6]; SD, rat, plasma, po, 5 mg/kg, Rat (SD), 1 hr, BQL = below quantitation limit (1.00 ng/mL), read-out: Plasma concentration, mean): 7.14 ng/mL
concentration at 4 h ([6]; SD, rat, plasma, po, 5 mg/kg, Rat (SD), 4 hr, BQL = below quantitation limit (1.00 ng/mL)): 12.8 ng/mL
concentration at 8 h ([6]; SD, rat, plasma, po, 5 mg/kg, Rat (SD), 8 hr, BQL = below quantitation limit (1.00 ng/mL), read-out: Plasma concentration, mean): 12.2 ng/mL
concentration at 0.25 h ([6]; SD, rat, plasma, po, 5 mg/kg, Rat, 0.250 hr, BQL limit 1.00 ng/mL, read-out: Plasma concentration, individual animal): 1.47 ng/mL
concentration at 0.5 h ([6]; SD, rat, plasma, po, 5 mg/kg, Rat, 0.500 hr, BQL limit 1.00 ng/mL, read-out: Plasma concentration, individual animal): 2.86 ng/mL
concentration at 1 h ([6]; SD, rat, plasma, po, 5 mg/kg, Rat, 1.00 hr, BQL limit 1.00 ng/mL, read-out: Plasma concentration, individual animal): 5.47 ng/mL
concentration at 8 h ([6]; SD, rat, plasma, po, 5 mg/kg, Rat, 8.00 hr, BQL limit 1.00 ng/mL, read-out: Plasma concentration, individual animal): 15.6 ng/mL
Plasma concentration, mean ([7]; Rat (SD), 8 hr, terminal, listed as ADG I-206, 1 mg/kg): 5 ng/mL
Plasma concentration, mean ([7]; Rat (SD), 24 hr, terminal, BQL limit 1.00 ng/mL (ADG I-205: 2.00 ng/mL)): BQL
Plasma concentration, individual animal ([7]; Rat, 0.500 hr, not terminal (animals 4, 5 and 6), listed as ADG I-206, 1 mg/kg): 7310** ng/mL and 527 ng/mL and 507 ng/mL
Plasma concentration, individual animal ([7]; Rat, 1.00 hr, terminal, listed as ADG I-206, 1 mg/kg): 177 ng/mL and 142 ng/mL
Plasma concentration, individual animal ([7]; Rat, 4.00 hr, terminal, BQL limit 1.00 ng/mL (ADG I-205: 2.00 ng/mL), listed as ADG I-206, 1 mg/kg): 4.19 ng/mL and 1.81 ng/mL
Plasma concentration, individual animal ([7]; Rat, 8.00 hr, terminal, BQL limit 1.00 ng/mL (ADG I-205: 2.00 ng/mL), listed as ADG I-206, 1 mg/kg): BQL and 1.44 ng/mL and 8.52 ng/mL
Plasma concentration, individual animal ([7]; Rat, 24.0 hr, terminal, BQL limit 1.00 ng/mL (ADG I-205: 2.00 ng/mL)): BQL
concentration at 0.083 h ([7]; SD, rat, plasma, iv, 1 mg/kg, Rat (SD), 0.083 hr, terminal, read-out: Plasma concentration, mean): 1090 ng/mL
concentration at 0.5 h ([7]; SD, rat, plasma, iv, 1 mg/kg, Rat (SD), 0.500 hr, not a terminal time point (animals 4, 5 and 6)): 2780 ng/mL
concentration at 1 h ([7]; SD, rat, plasma, iv, 1 mg/kg, Rat (SD), 1 hr, terminal, read-out: Plasma concentration, mean): 165 ng/mL
concentration at 4 h ([7]; SD, rat, plasma, iv, 1 mg/kg, Rat (SD), 4 hr, terminal, read-out: Plasma concentration, mean): 3 ng/mL
concentration at 8 h ([7]; SD, rat, plasma, iv, 1 mg/kg, Rat (SD), 8 hr, terminal, read-out: Plasma concentration, mean): 4.98 ng/mL
concentration at 1 h ([7]; SD, rat, plasma, iv, 1 mg/kg, Rat, 1.00 hr, terminal, read-out: Plasma concentration, individual animal): 176 ng/mL
Brain concentration, mean ([8]; Rat (SD), 1 hr, listed as ADG I-206, 1 mg/kg): 67 ng/g
Brain concentration, mean ([8]; Rat (SD), 4 hr, BQL limit 10.0 ng/g (204, 206), 20.0 ng/g (205, 207)): BQL
Brain concentration, mean ([8]; Rat (SD), 8 hr, BQL limit 10.0 ng/g (204, 206), 20.0 ng/g (205, 207)): BQL
Brain concentration, mean ([8]; Rat (SD), 24 hr, BQL limit 10.0 ng/g (204, 206), 20.0 ng/g (205, 207)): BQL
Brain concentration, individual animal ([8]; Rat, 0.0830 hr, third animal received only 70% of the test article, listed as ADG I-206, 1 mg/kg): 1080 ng/g and 1050 ng/g and 455*** ng/g
Brain concentration, individual animal ([8]; Rat, 1.00 hr, listed as ADG I-206, 1 mg/kg): 57.6 ng/g and 74.3 ng/g
Brain concentration, individual animal ([8]; Rat, 4.00 hr, BQL limit 10.0 ng/g (204, 206), 20.0 ng/g (205, 207)): BQL
Brain concentration, individual animal ([8]; Rat, 8.00 hr, BQL limit 10.0 ng/g (204, 206), 20.0 ng/g (205, 207)): BQL
Brain concentration, individual animal ([8]; Rat, 24.0 hr, BQL limit 10.0 ng/g (204, 206), 20.0 ng/g (205, 207)): BQL
concentration at 0.083 h ([8]; SD, rat, brain, iv, 1 mg/kg, Rat (SD), 0.083 hr): 862 ng/g
concentration at 1 h ([8]; SD, rat, brain, iv, 1 mg/kg, Rat (SD), 1 hr, read-out: Brain concentration, mean): 66.9 ng/g
concentration at 1 h ([8]; SD, rat, brain, iv, 1 mg/kg, Rat, 1.00 hr, read-out: Brain concentration, individual animal): 68.8 ng/g
Plasma concentration, individual animal ([10]; 0.250 hr): BQL
Plasma concentration, individual animal ([10]; 0.500 hr): 2.16 ng/mL and 1.93 ng/mL
Plasma concentration, individual animal ([10]; 1.00 hr): 9.00 ng/mL and 6.94 ng/mL
Plasma concentration, individual animal ([10]; 4.00 hr): 17.2 ng/mL and 8.32 ng/mL
Plasma concentration, individual animal ([10]; 8.00 hr): 8.89 ng/mL
SMILES: CNC(=O)Nc1ccc2nc(-c3cccs3)c(-c3cccs3)nc2c1 [ADG-206, 1-(2,3-di(thiophen-2-yl)quinoxalin-6-yl)-3-methylurea]
Plasma concentration, individual animal ([7]; Rat, 0.0830 hr, terminal, third animal received only 70% of the test article, listed as ADG I-206, 1 mg/kg): 1500 ng/mL and 1160 ng/mL and 610*** ng/mL
H3K9ac levels normalized to H3 and DMSO control ([9]; 1 uM): 46.94%
H3K9ac levels normalized to H3 and DMSO control ([9]; 5 uM): 35.39%
H3K9ac levels normalized to H3 and DMSO control ([9]; 10 uM): 19.49%
H3K9ac levels normalized to H3 and DMSO control ([9]; 20 uM): 8.45%
H3K9ac levels normalized to H3 and DMSO control ([9]; 50 uM): 5.83%
H3K9ac levels normalized to H3 and DMSO control ([9]; 100 uM): 1.24%

Source: patent US20220117958A1, “COMPOSITIONS AND METHODS FOR INHIBITING ACSS2” (THE TRUSTEES OF THE UNIVERSITY OF PENNSYLVANIA, priority 2018, published 2022)
